Consider one molecule from US6451803B1, “N-acyl and n-aroyl aralkyl amides useful in treating seritonergic disorders” (Pfizer INC, priority 1998, dated 2002).

As a reminder, the melting point is the temperature of the solid-liquid transition.

`CN1CCN(c2ccccc2CCNC(=O)c2ccc(Cl)c(Cl)c2)CC1.Cl.O` (hydrate or solvate) had a melting point of 110 to 120 °C.
